Laboratory results reported in patent US7718715B2, “pH-modified latex comprising a synergistic combination of biocides” (S.C. Johnson & Son, Inc., priority 2004, dated 2010).

What was measured:
[1] = system: Candida albicans #10231; test: Challenge Test (Antimicrobial Effectiveness Test), yeast inoculum; assay type: cell-based; design: key to Challenge Test result: Yeast C. albicans: Fail: Recovery of surviving organisms at 14 days was a failing result for the challenge test; details: for Challenge Test result: Yeast C. albicans: stabilized acrylic latex A, DN 22%
Protocol: The following cultures were obtained from American Type Culture Collection (ATCC) at 10801 University Boulevard, Manassas, Va. 20110-2209: Escherichia coli #11229, Pseudomonas aeruginosa #15442, Candida albicans #10231, Aspergillus niger #6275.
The yeast inoculum was 0.10 ml of a 72-hr±4 hr culture of C. albicans in 25 grams of sample to give approximately 2×10^5 CFU/g. The C. albicans culture was grown in Potato Dextrose Broth (Difco Laboratories, Detroit, Mich.) at 28° C.
(§1) Each of the 25-g samples were inoculated or challenged with 0.10 ml of the bacterial inoculum, the yeast inoculum, and the mold inoculum respectively on day-0 and day-14. All samples were stored at ambient temperature. Each sample (10 microliter) was streaked on appropriate agar plates (bacteria on Tryptic Soy Agar (Difco Laboratories, Detroit, Mich.) plates with neutralizer and yeast/mold on Potato Dextrose Agar (Difco Laboratories, Detroit, Mich.) plates with neutralizer) on day-1, day-2, day-3, day-7, day-14, day-15, day-16, day-17, day-21, and day-28 to test for survivors. Streaked plates were incubated at appropriate temperature and time (48-hr at 35±2° C. for bacteria and 72-hr at 28±2° C. for yeast/mold). On day-14, each sample was re-inoculated with appropriate inoculum after streaking on agar plates. Plates were read after incubation time. Recovery of surviving organisms at 14 days was a failing result for the challenge test.
Biocides were always added after the reaction has been completed and after the batch has been cooled to <50° C. The desired temperature was dependent on the specific biocide. Many biocides become deactivated if exposed to high temperatures for an extended time. Each biocide was diluted with about 5× its weight with DI water and slowly added to the batch with good agitation. The dilution is to prevent the biocide from shocking the latex. The batch was mixed for a minimum of 20 minutes after the biocide was added to ensure good incorporation. If any temporary destabilization to the latex had occurred, it had time to recover prior to filtration.
The Challenge Test is a qualitative laboratory procedure used to differentiate poorly and marginally preserved products from well-preserved products. Products are intentionally inoculated with test organisms and then evaluated by use of streak plating technique to determine if microbial reduction has been attained.

[2] = system: Escherichia coli #11229, Pseudomonas aeruginosa #15442; test: Challenge Test (Antimicrobial Effectiveness Test), bacterial inoculum (1:1 mixture); assay type: cell-based, E. coli & P. aeruginosa; details: stabilized acrylic latex A, DN 22%
Protocol: The following cultures were obtained from American Type Culture Collection (ATCC) at 10801 University Boulevard, Manassas, Va. 20110-2209: Escherichia coli #11229, Pseudomonas aeruginosa #15442, Candida albicans #10231, Aspergillus niger #6275. The bacterial inoculum was 0.10 ml of a 1:1 mixture of the 24-hr±4 hr culture of E. coli and P. aeruginosa in 25 grams of sample to give approximately 4×10^6 CFU/g. Both E. coli culture and the P. aeruginosa culture were grown in Nutrient Broth (Difco Laboratories, Detroit, Mich.) at 35° C. Each of the 25-g samples were inoculated or challenged with 0.10 ml of the bacterial inoculum, the yeast inoculum, and the mold inoculum respectively on day-0 and day-14. All samples were stored at ambient temperature. Each sample (10 microliter) was streaked on appropriate agar plates (bacteria on Tryptic Soy Agar (Difco Laboratories, Detroit, Mich.) plates with neutralizer and yeast/mold on Potato Dextrose Agar (Difco Laboratories, Detroit, Mich.) plates with neutralizer) on day-1, day-2, day-3, day-7, day-14, day-15, day-16, day-17, day-21, and day-28 to test for survivors. Streaked plates were incubated at appropriate temperature and time (48-hr at 35±2° C. for bacteria and 72-hr at 28±2° C. for yeast/mold). On day-14, each sample was re-inoculated with appropriate inoculum after streaking on agar plates. Plates were read after incubation time. Recovery of surviving organisms at 14 days was a failing result for the challenge test. Biocides were always added after the reaction has been completed and after the batch has been cooled to <50° C. The desired temperature was dependent on the specific biocide. Many biocides become deactivated if exposed to high temperatures for an extended time. Each biocide was diluted with about 5× its weight with DI water and slowly added to the batch with good agitation. The dilution is to prevent the biocide from shocking the latex. The batch was mixed for a minimum of 20 minutes after the biocide was added to ensure good incorporation. If any temporary destabilization to the latex had occurred, it had time to recover prior to filtration. The Challenge Test is a qualitative laboratory procedure used to differentiate poorly and marginally preserved products from well-preserved products. Products are intentionally inoculated with test organisms and then evaluated by use of streak plating technique to determine if microbial reduction has been attained.

[3] = system: C. albicans & A. niger; test: Challenge Test end point on yeast and mold and Synergy Index (Kull); assay type: cell-based; details: Bioban CS-1135 acting alone (QA); test stabilized acrylic latex A
Protocol: as §1, with “On day-14, each sample was re-inoculated with appropriate inoculum after streaking on agar plates.” left out, “Recovery of surviving organisms at 14 days was a failing result for the challenge test.” left out
Synergism was determined by the method described by F. C. […] Eisman, H. D. Sylwestrowicz, and R. L. Mayer in Applied Microbiology, Volume 9, pages 538-541, 1961 using the ratio determined by • Synergy Index (SI)=Qa/QA+Qb/QB=1 is additivity, <1 is synergism, and >1 is antagonism • where, • Qa=concentration of compound A, in the mixture, producing an end point • QA=concentration of compound A, acting alone, producing an end point • Qb=concentration of compound B, in the mixture, producing an end point • QB=concentration of compound B, acting alone, producing an end point

[4] = 0.10% Bronopol (30% active), 0.00% Bioban CS-1135, pH 6.64, Table 1
[5] = 0.10% Bronopol (30% active), 0.00% Dowicil 75, pH 6.64, Table 3
[6] = 0.20% Bronopol (30% active), 0.00% Bioban CS-1135, pH 6.65, Table 1
[7] = 0.20% Bronopol (30% active), 0.00% Dowicil 75, pH 6.65, Table 3
[8] = 0.50% Bronopol (30% active), 0.00% Bioban CS-1135, pH 6.58, Table 1
[9] = 0.50% Bronopol (30% active), 0.00% Dowicil 75, pH 6.58, Table 3
[10] = 0.80% Bronopol (30% active), 0.00% Bioban CS-1135, pH 6.57, Table 1
[11] = 0.80% Bronopol (30% active), 0.00% Dowicil 75, pH 6.57, Table 3
[12] = 1.20% Bronopol (30% active), 0.00% Bioban CS-1135, pH 6.57, Table 1
[13] = 1.20% Bronopol (30% active), 0.00% Dowicil 75, pH 6.57, Table 3
[14] = 0.10% Bioban CS-1135, 0.00% Bronopol, pH 6.68
[15] = 0.20% Bioban CS-1135, 0.00% Bronopol, pH 6.69
[16] = 0.80% Bioban CS-1135, 0.00% Bronopol, pH 6.62
[17] = 1.20% Bioban CS-1135, 0.00% Bronopol, pH 6.64
[18] = 2.00% Bioban CS-1135, 0.00% Bronopol, pH 6.82

How did the “Challenge Test result: Yeast C. albicans” value [1, 4] turn out when `O=[N+]([O-])C(Br)(CO)CO` [Bronopol, 2-bromo-2-nitro-1,3-propanediol] was run?
Its value is “Fail”.

What about the “Challenge Test result: Yeast C. albicans” value [1, 5] of the same compound?
The value was “Pass”.

And the “Challenge Test result: Yeast C. albicans” value [1, 6]?
The value was “Fail”.

What about the “Challenge Test result: Yeast C. albicans” value [1, 7] of the same compound?
The value was “Pass”.

What about the “Challenge Test result: Yeast C. albicans” value [1, 8] of the same compound?
The value was “Pass”.

What about the “Challenge Test result: Yeast C. albicans” value [1, 9] of the same compound?
Its value is “Pass”.

What about the “Challenge Test result: Yeast C. albicans” value [1, 10] of the same compound?
Its value is “Pass”.

And the “Challenge Test result: Yeast C. albicans” value [1, 11]?
The value was “Pass”.

And the “Challenge Test result: Yeast C. albicans” value [1, 12]?
Its value is “Pass”.

What about the “Challenge Test result: Yeast C. albicans” value [1, 13] of the same compound?
The value was “Pass”.

What about the “Challenge Test result: Bacteria E. coli & P. aeruginosa” value [2, 4] of the same compound?
The value was “Pass”.

And the “Challenge Test result: Bacteria E. coli & P. aeruginosa” value [2, 5]?
Its value is “Pass”.

What about the “Challenge Test result: Bacteria E. coli & P. aeruginosa” value [2, 6] of the same compound?
The value was “Pass”.

And the “Challenge Test result: Bacteria E. coli & P. aeruginosa” value [2, 7]?
Its value is “Pass”.

What about the “Challenge Test result: Bacteria E. coli & P. aeruginosa” value [2, 8] of the same compound?
Its value is “Pass”.

What about the “Challenge Test result: Bacteria E. coli & P. aeruginosa” value [2, 9] of the same compound?
The value was “Pass”.

What about the “Challenge Test result: Bacteria E. coli & P. aeruginosa” value [2, 10] of the same compound?
The value was “Pass”.

And the “Challenge Test result: Bacteria E. coli & P. aeruginosa” value [2, 11]?
Its value is “Pass”.

And the “Challenge Test result: Bacteria E. coli & P. aeruginosa” value [2, 12]?
The value was “Pass”.

And the “Challenge Test result: Bacteria E. coli & P. aeruginosa” value [2, 13]?
The value was “Pass”.

Which results are given for `CC1(C)COCN1` [Bioban CS-1135, 4,4-dimethyl-oxazolidine]?
Challenge Test result: Yeast C. albicans [1, 14]: Fail; Challenge Test result: Yeast C. albicans [1, 15]: Fail; Challenge Test result: Yeast C. albicans [1, 16]: Fail; Challenge Test result: Yeast C. albicans [1, 17]: Fail; Challenge Test result: Yeast C. albicans [1, 18]: Pass; killing of yeast (C. albicans) ([1]; BIOBAN CS-1135 at 1.2%, acrylic latex A): failed to kill; control of Candida albicans ([1]; maximum allowable level, test stabilized acrylic latex): failed to control; Challenge Test result: Bacteria E. coli & P. aeruginosa [2, 14]: Pass; Challenge Test result: Bacteria E. coli & P. aeruginosa [2, 15]: Pass; Challenge Test result: Bacteria E. coli & P. aeruginosa [2, 16]: Pass; Challenge Test result: Bacteria E. coli & P. aeruginosa [2, 17]: Pass; Challenge Test result: Bacteria E. coli & P. aeruginosa [2, 18]: Pass; Compound A end-point in % [3]: 2%
